Assay results: PubChem BioAssay AID1845197 (Molecular Pharmacology Branch, DTP, NCI, 2023)

Test system: 349418-098-R tumor spheroid viability
Assay: Anticancer human tumor 349418-098-R patient-derived lung adenocarcinoma cell line growth inhibition
Conditions: spheroids with HUVEC and MSC; for IC50: curve of first compound; for viability, T/C: stronger effect = lower value
Summary of the method: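 Complex spheroids of malignant cells with endothelial cells and mesenchymal stem cells; agents alone or combined, from near clinical Cmax (or 10 microM if unknown) down in half-log steps, 0.25% DMSO final.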

[1] = second compound 0.003 µM, first compound 0.0316 µM
[2] = second compound 0.003 µM, first compound 0.1 µM
[3] = second compound 0.003 µM, first compound 0.316 µM
[4] = second compound 0.003 µM, first compound 1 µM
[5] = second compound 0.003 µM, first compound 3.16 µM
[6] = second compound 0.003 µM, first compound 10 µM
[7] = second compound 0.00949 µM, first compound 0.0316 µM
[8] = second compound 0.00949 µM, first compound 0.1 µM
[9] = second compound 0.00949 µM, first compound 0.316 µM
[10] = second compound 0.00949 µM, first compound 1 µM
[11] = second compound 0.00949 µM, first compound 3.16 µM
[12] = second compound 0.00949 µM, first compound 10 µM
[13] = second compound 0.03 µM, first compound 0.0316 µM
[14] = second compound 0.03 µM, first compound 0.1 µM
[15] = second compound 0.03 µM, first compound 0.316 µM
[16] = second compound 0.03 µM, first compound 1 µM
[17] = second compound 0.03 µM, first compound 3.16 µM
[18] = second compound 0.03 µM, first compound 10 µM
[19] = second compound 0.0949 µM, first compound 0.0316 µM
[20] = second compound 0.0949 µM, first compound 0.1 µM
[21] = second compound 0.0949 µM, first compound 0.316 µM
[22] = second compound 0.0949 µM, first compound 1 µM
[23] = second compound 0.0949 µM, first compound 3.16 µM
[24] = second compound 0.0949 µM, first compound 10 µM
[25] = second compound 0.3 µM, first compound 0.0316 µM
[26] = second compound 0.3 µM, first compound 0.1 µM
[27] = second compound 0.3 µM, first compound 0.316 µM
[28] = second compound 0.3 µM, first compound 1 µM
[29] = second compound 0.3 µM, first compound 3.16 µM
[30] = second compound 0.3 µM, first compound 10 µM
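Note: spheroids exposed to compound for 7 days before measurement.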
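Throughout, for viability, T/C: percent of vehicle control viability with 100% = DMSO-treated spheroids.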

For `CC(C)n1c(=O)n(C)c2cnc3cc(F)c(-c4ccc(OCCCN5CCCCC5)nc4)cc3c21` + CC[C@@]1(O)C(=O)OCc2c1cc1n(c2=O)Cc2cc3c(CN(C)C)c(O)ccc3nc2-1, the IC50 (second compound 0.003 µM) was over 10 µM, the IC50 (second compound 0.00949 µM) was 4.93 µM and the IC50 (second compound 0.03 µM) was under 0.0316 µM. For the same compound, the IC50 (second compound 0.0949 µM) was under 0.0316 µM, the IC50 (second compound 0.3 µM) was under 0.0316 µM and the viability, T/C [1] was 96.9%. For the same compound, the viability, T/C [2] was 93.2%, the viability, T/C [3] was 93.8% and the viability, T/C [4] was 99.6%. The viability, T/C [5] was 100%, the viability, T/C [6] was 63.9% and the viability, T/C [7] was 67.6%. The viability, T/C [8] was 69.3%, the viability, T/C [9] was 66.2% and the viability, T/C [10] was 67.7%. It also gave a viability, T/C [11] of 63.4%, a viability, T/C [12] of 28.7% and a viability, T/C [13] of 24.3%. It also gave a viability, T/C [14] of 22%, a viability, T/C [15] of 22.2% and a viability, T/C [16] of 22.7%. The viability, T/C [17] was 27.8%, the viability, T/C [18] was 17% and the viability, T/C [19] was 7.03%. For the same compound, the viability, T/C [20] was 9.49%, the viability, T/C [21] was 9.54% and the viability, T/C [22] was 9.81%. For the same compound, the viability, T/C [23] was 11.7%, the viability, T/C [24] was 12.4% and the viability, T/C [25] was 5.01%. For the same compound, the viability, T/C [26] was 4.88%, the viability, T/C [27] was 5.74% and the viability, T/C [28] was 6.26%. For the same compound, the viability, T/C [29] was 8.16% and the viability, T/C [30] was 8.82%.
`COc1ccc([C@@H](O)c2cc(-c3ncnc4cc(N5CCOCC5)ccc34)c(F)cc2Cl)nn1` + CC[C@@]1(O)C(=O)OCc2c1cc1n(c2=O)Cc2cc3c(CN(C)C)c(O)ccc3nc2-1 showed an IC50 (second compound 0.003 µM) of 7.87 µM, an IC50 (second compound 0.00949 µM) of 6.18 µM and an IC50 (second compound 0.03 µM) of 0.679 µM. The IC50 (second compound 0.0949 µM) was under 0.0316 µM, the IC50 (second compound 0.3 µM) was under 0.0316 µM and the viability, T/C [1] was 103%. For the same compound, the viability, T/C [2] was 107%, the viability, T/C [3] was 106% and the viability, T/C [4] was 106%. The viability, T/C [5] was 89.2%, the viability, T/C [6] was 39% and the viability, T/C [7] was 90.1%. It also gave a viability, T/C [8] of 102%, a viability, T/C [9] of 106% and a viability, T/C [10] of 102%. For the same compound, the viability, T/C [11] was 82.8%, the viability, T/C [12] was 26.5% and the viability, T/C [13] was 69.8%. For the same compound, the viability, T/C [14] was 78.5%, the viability, T/C [15] was 60.4% and the viability, T/C [16] was 43.9%. It also gave a viability, T/C [17] of 26.1%, a viability, T/C [18] of 18.9% and a viability, T/C [19] of 18.4%. The viability, T/C [20] was 11.6%, the viability, T/C [21] was 14.2% and the viability, T/C [22] was 13.7%. The viability, T/C [23] was 11.4%, the viability, T/C [24] was 9.78% and the viability, T/C [25] was 4.47%. The viability, T/C [26] was 3.97%, the viability, T/C [27] was 4.59% and the viability, T/C [28] was 4.78%. The viability, T/C [29] was 4.77% and the viability, T/C [30] was 3.94%.
For `O=C(c1cc(Cc2n[nH]c(=O)c3ccccc23)ccc1F)N1CCN(C(=O)C2CC2)CC1` + COc1cc2c(cc1O)CCNC21CSC2c3c(OC(C)=O)c(C)c4c(c3C(COC1=O)N1C(O)C3Cc5cc(C)c(OC)c(O)c5C(C21)N3C)OCO4, the IC50 (second compound 30 pM) was over 30 µM, the IC50 (second compound 94.9 pM) was over 30 µM and the IC50 (second compound 0.0003 µM) was 3.7 µM. The IC50 (second compound 0.000949 µM) was under 0.0949 µM, the IC50 (second compound 0.003 µM) was under 0.0949 µM and the viability, T/C (second compound 30 pM, first compound 0.0949 µM) was 122%. The viability, T/C (second compound 30 pM, first compound 0.3 µM) was 107%, the viability, T/C (second compound 30 pM, first compound 0.949 µM) was 108% and the viability, T/C (second compound 30 pM, first compound 3 µM) was 111%. It also gave a viability, T/C (second compound 30 pM, first compound 9.49 µM) of 107%, a viability, T/C (second compound 30 pM, first compound 30 µM) of 69.6% and a viability, T/C (second compound 94.9 pM, first compound 0.0949 µM) of 104%. The viability, T/C (second compound 94.9 pM, first compound 0.3 µM) was 108%, the viability, T/C (second compound 94.9 pM, first compound 0.949 µM) was 102% and the viability, T/C (second compound 94.9 pM, first compound 3 µM) was 107%. The viability, T/C (second compound 94.9 pM, first compound 9.49 µM) was 98.7%, the viability, T/C (second compound 94.9 pM, first compound 30 µM) was 54.6% and the viability, T/C (second compound 0.0003 µM, first compound 0.0949 µM) was 94.9%. It also gave a viability, T/C (second compound 0.0003 µM, first compound 0.3 µM) of 87.4%, a viability, T/C (second compound 0.0003 µM, first compound 0.949 µM) of 79.7% and a viability, T/C (second compound 0.0003 µM, first compound 3 µM) of 58.9%. The viability, T/C (second compound 0.0003 µM, first compound 9.49 µM) was 19.3%, the viability, T/C (second compound 0.0003 µM, first compound 30 µM) was 5.2% and the viability, T/C (second compound 0.000949 µM, first compound 0.0949 µM) was 0.44%. The viability, T/C (second compound 0.000949 µM, first compound 0.3 µM) was 0.4%, the viability, T/C (second compound 0.000949 µM, first compound 0.949 µM) was 0.25% and the viability, T/C (second compound 0.000949 µM, first compound 3 µM) was 0.25%. The viability, T/C (second compound 0.000949 µM, first compound 9.49 µM) was 0.15%, the viability, T/C (second compound 0.000949 µM, first compound 30 µM) was 0.44% and the viability, T/C (second compound 0.003 µM, first compound 0.0949 µM) was 1.64%. It also gave a viability, T/C (second compound 0.003 µM, first compound 0.3 µM) of 1.88%, a viability, T/C (second compound 0.003 µM, first compound 0.949 µM) of 1.67% and a viability, T/C (second compound 0.003 µM, first compound 3 µM) of 2.88%. The viability, T/C (second compound 0.003 µM, first compound 9.49 µM) was 3.79% and the viability, T/C (second compound 0.003 µM, first compound 30 µM) was 5.74%.
